According to patent US20240115745A1, “COMPOUNDS COMPRISING A FIBROBLAST ACTIVATION PROTEIN LIGAND AND USE THEREOF” (3B PHARMACEUTICALS GMBH, priority 2021, published 2024):
Like-named read-outs stand apart in the source and are kept apart here. *1 amine or outer side, *2 acyl side, *3 side chain or, on linkers, in order; H or OH if unused. Where a SMILES comes first, the peptide text is derived from it. Bridges are numbered along the chain shown (N, C = ends). [ ]: non-standard residue; d: D form. The star is where a group is joined. X4 = O=C(O)CN1CCN(CC(=O)O)CCN(CC(=O)NCCCOCCOCCOCCCN*)CCN(CC(=O)O)CC1; X1 = NC(=O)CC[C@H](N[*:1])C(=O)C[C@@H](Cc1ccccc1)C(=O)[*:2]; DOTA = O=C(O)CN1CCN(CC(=O)O)CCN(CC(=O)*)CCN(CC(=O)O)CC1; Maleimide(3,4-diyl) = O=C1NC(=O)C([*:2])=C1[*:1]; X7 = CN1C(=O)C([*:1])=C([*:2])C1=O; Suc = O=C(CCC(=O)[*:2])[*:1]; β3hK = NCCCC[C@H](N)CC(=O)O; 4Amb = NCc1ccc(C(=O)O)cc1; Nle = CCCC[C@H](N)C(=O)O; Hexanoyl = CCCCCC(=O)*

Tests used:
[1] = molecular target: T1, FAP-expressing human WI-38 fibroblasts (Homo sapiens, UniProt Q12884); test: Competitive FACS binding assay;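 note: flow cytometry read-out of median Cy5 fluorescence on the cells, plotted versus test compound concentration, with IC50 derived by four-parameter logistic curve fitting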
T1 construct: FAP-expressing human WI-38 fibroblasts (ECACC) were cultured in EMEM; host or cells: WI-38 human fibroblasts
T1 sequence (Q12884 whole entry): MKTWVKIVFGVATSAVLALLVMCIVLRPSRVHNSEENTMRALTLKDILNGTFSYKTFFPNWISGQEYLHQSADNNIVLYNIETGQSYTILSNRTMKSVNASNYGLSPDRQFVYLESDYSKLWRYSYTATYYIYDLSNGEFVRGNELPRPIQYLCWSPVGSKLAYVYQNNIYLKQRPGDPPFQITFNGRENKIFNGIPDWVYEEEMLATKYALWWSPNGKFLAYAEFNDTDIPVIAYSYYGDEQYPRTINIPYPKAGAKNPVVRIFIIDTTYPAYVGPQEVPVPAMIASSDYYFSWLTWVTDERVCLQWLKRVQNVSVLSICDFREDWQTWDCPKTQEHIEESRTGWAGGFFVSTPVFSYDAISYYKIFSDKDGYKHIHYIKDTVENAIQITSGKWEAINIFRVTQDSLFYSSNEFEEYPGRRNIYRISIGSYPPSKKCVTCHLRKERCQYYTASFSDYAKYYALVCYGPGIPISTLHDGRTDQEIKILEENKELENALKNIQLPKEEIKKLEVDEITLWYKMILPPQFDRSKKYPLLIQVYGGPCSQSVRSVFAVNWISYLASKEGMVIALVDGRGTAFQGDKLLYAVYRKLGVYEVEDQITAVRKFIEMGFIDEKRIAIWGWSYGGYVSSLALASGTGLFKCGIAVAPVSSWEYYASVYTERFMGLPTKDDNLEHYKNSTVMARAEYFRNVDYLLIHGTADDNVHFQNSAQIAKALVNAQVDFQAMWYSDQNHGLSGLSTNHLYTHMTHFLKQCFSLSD

Recombinant human FAP = molecular target: T2, Recombinant human FAP (Homo sapiens, UniProt Q12884); test: FRET-based FAP protease activity assay; assay type: biochemical
T2 construct: purchased R&D systems 3715-SE
T2 sequence (Q12884 26-760 limits assumed): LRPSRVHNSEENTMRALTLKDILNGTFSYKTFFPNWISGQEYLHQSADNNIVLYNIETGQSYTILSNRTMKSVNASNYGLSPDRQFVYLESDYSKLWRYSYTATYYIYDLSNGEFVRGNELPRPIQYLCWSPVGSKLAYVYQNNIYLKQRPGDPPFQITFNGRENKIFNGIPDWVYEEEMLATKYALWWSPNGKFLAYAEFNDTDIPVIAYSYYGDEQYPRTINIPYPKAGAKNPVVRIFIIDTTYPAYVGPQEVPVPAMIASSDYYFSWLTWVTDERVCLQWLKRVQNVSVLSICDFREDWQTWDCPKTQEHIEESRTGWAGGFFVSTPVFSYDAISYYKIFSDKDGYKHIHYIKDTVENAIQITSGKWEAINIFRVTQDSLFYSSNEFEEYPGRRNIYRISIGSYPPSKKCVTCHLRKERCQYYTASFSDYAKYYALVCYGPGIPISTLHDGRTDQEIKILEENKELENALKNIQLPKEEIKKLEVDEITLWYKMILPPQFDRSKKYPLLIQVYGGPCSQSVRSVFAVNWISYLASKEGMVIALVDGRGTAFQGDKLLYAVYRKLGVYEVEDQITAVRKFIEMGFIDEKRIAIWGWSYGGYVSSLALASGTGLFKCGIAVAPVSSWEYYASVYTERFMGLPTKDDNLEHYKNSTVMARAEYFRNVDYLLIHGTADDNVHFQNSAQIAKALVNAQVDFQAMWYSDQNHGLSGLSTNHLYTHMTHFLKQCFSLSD

[2] = competition with 3 nM Cy5-labeled compound, WI-38 fibroblasts, 4° C., 1 hour, read-out: pIC50 Category (FACS) (converted)
[3] = recombinant human FAP, FRET-peptide substrate, 37° C., read-out: pIC50 Category (Activity) (converted)

Structure (SMILES)	IC50 [1, 2] [nM]	IC50 (Recombinant human FAP; [3]) [nM]	IC50 ([1]; read-out: pIC50 (highest activity categories, FACS binding) (converted)) [nM]	IC50 (Recombinant human FAP; read-out: pIC50 (highest activity categories, FAP activity) (converted)) [nM]
CCCCCC(=O)N[C@H]1CSSC[C@@H](C(=O)N[C@@H](CCCCNC(=O)CN2CCN(CC(=O)O)CCN(CC(=O)O)CCN(CC(=O)O)CC2)CC(=O)O)NC(=O)[C@H](Cc2ccccc2)NC(=O)[C@H](CCC(=O)O)NC(=O)[C@H]([C@@H](C)O)NC(=O)[C@@H]2CCCN2C(=O)[C@@H]2CCCN2C1=O [Compound 1012, Hex-[Cys-Pro-Pro-Thr-Glu-Phe-Cys]-Bhk(DOTA)-OH] (Hexanoyl-CPPTEFC[β3hK](DOTA)-OH; disulfide 1-7)	< 100	< 100	–	–
CCCC[C@H](NC(=O)CCC(=O)NCCCOCCOCCOCCCNC(=O)CN1CCN(CC(=O)O)CCN(CC(=O)O)CCN(CC(=O)O)CC1)C(=O)N[C@H]1CSC2=C(SC[C@@H](C(=O)N[C@@H](CC(=O)O)C(=O)NCc3ccc(C(=O)N[C@@H](CCCNC(=N)N)C(N)=O)cc3)NC(=O)[C@H](Cc3ccccc3)CC(=O)[C@H](CCC(N)=O)NC(=O)[C@H]([C@@H](C)O)NC(=O)[C@@H]3CCCN3C(=O)[C@@H]3CCCN3C1=O)C(=O)NC2=O [Compound 2006, DOTA-Ttds-Nle-[Cys(mli)-Pro-Pro-Thr-Gln-Phe-Cys]-Asp-Pamb-Arg-NH2] ({X4-Suc}-[Nle]CPPT[X1]CD[4Amb]R-NH2; linker 2-7 via Maleimide(3,4-diyl))	< 100	< 100	–	–
CCCCCC(=O)N[C@H]1CSC2=C(SC[C@@H](C(=O)O)NC(=O)[C@H](Cc3ccccc3)NC(=O)[C@H](CCC(N)=O)NC(=O)[C@H]([C@@H](C)O)NC(=O)[C@@H]3CCCN3C(=O)[C@@H]3CCCN3C1=O)C(=O)N(CCCOCCOCCOCCCNC(=O)CN1CCN(CC(=O)O)CCN(CC(=O)O)CCN(CC(=O)O)CC1)C2=O [Compound 2019, Hex-[Cys(mli(DOTA-Ttd))-Pro-Pro-Thr-Gln-Phe-Cys]-OH]	< 100	< 100	–	–
CCCC[C@H](NC(=O)CCC(=O)NCCCOCCOCCOCCCNC(=O)CC[C@H](C(=O)O)N1CCN(CC(=O)O)CCN(CC(=O)O)CC1)C(=O)N[C@H]1CSC2=C(SC[C@@H](C(=O)NCCC(=O)O)NC(=O)[C@H](Cc3ccccc3)NC(=O)[C@H](CCC(N)=O)NC(=O)[C@H]([C@@H](C)O)NC(=O)[C@@H]3CCCN3C(=O)[C@@H]3CCCN3C1=O)C(=O)NC2=O [Compound 2021, NODAGA-Ttds-Nle-[Cys(mli)-Pro-Pro-Thr-Gln-Phe-Cys]-Bal-OH]	< 100	< 100	–	–
CCCC[C@H](NC(=O)CCC(=O)NCCCOCCOCCOCCCNC(=O)CN1CCN(CC(=O)O)CCN(CC(=O)O)CCN(CC(=O)O)CC1)C(=O)N[C@H]1CSSC[C@@H](C(=O)N[C@@H](CC(=O)O)C(=O)NCc2ccc(C(=O)N[C@@H](CCCNC(=N)N)C(N)=O)cc2)NC(=O)[C@H](Cc2ccccc2)NC(=O)[C@H](CCC(=O)O)NC(=O)[C@H]([C@@H](C)O)NC(=O)[C@@H]2CCCN2C(=O)[C@@H]2CCCN2C1=O [Compound 1007, DOTA-Ttds-Nle-[Cys-Pro-Pro-Thr-Glu-Phe-Cys]-Asp-Pamb-Arg-NH2] ({X4-Suc}-[Nle]CPPTEFCD[4Amb]R-NH2; disulfide 2-8)	< 100	< 100	–	–
CCCCCC(=O)N[C@H]1CSC2=C(SC[C@@H](C(=O)N[C@@H](CC(=O)O)C(N)=O)NC(=O)[C@H](Cc3ccccc3)NC(=O)[C@H](CCC(N)=O)NC(=O)[C@H]([C@@H](C)O)NC(=O)[C@@H]3CCCN3C(=O)[C@@H]3CCCN3C1=O)C(=O)NC2=O [Compound 2001, Hex-[Cys(mli)-Pro-Pro-Thr-Gln-Phe-Cys]-Asp-NH2] (HELM PEPTIDE1{[CCCCCC(=O)[*:2]].C.P.P.T.Q.F.C.D.[am]}|CHEM1{[O=C1NC(=O)C([*:2])=C1[*:1]]}$PEPTIDE1,CHEM1,2:R3-1:R1|PEPTIDE1,CHEM1,8:R3-1:R2$$$V2.0)	< 100	< 100	–	–

Now from value to compound:

IC50 [1, 2] [nM]	IC50 (Recombinant human FAP; [3]) [nM]	IC50 ([1]; read-out: pIC50 (highest activity categories, FACS binding) (converted)) [nM]	IC50 (Recombinant human FAP; read-out: pIC50 (highest activity categories, FAP activity) (converted)) [nM]	Structure (SMILES)
< 100	< 100	–	–	CCCC[C@H](NC(=O)CCC(=O)NCCCOCCOCCOCCCNC(=O)CN1CCN(CC(=O)O)CCN(CC(=O)O)CCN(CC(=O)O)CC1)C(=O)N[C@H]1CSC2=C(SC[C@@H](C(=O)N[C@@H](CC(=O)O)C(N)=O)NC(=O)[C@H](Cc3ccccc3)NC(=O)[C@H](CCC(N)=O)NC(=O)[C@H]([C@@H](C)O)NC(=O)[C@@H]3CCCN3C(=O)[C@@H]3CCCN3C1=O)C(=O)N(C)C2=O [Compound 2016, DOTA-Ttds-Nle-[Cys(mli(Me))-Pro-Pro-Thr-Gln-Phe-Cys]-Asp-NH2] ({X4-Suc}-[Nle]CPPTQFCD-NH2; linker 2-8 via X7)
< 100	< 100	–	–	CCCC[C@H](NC(=O)CCC(=O)NCCCOCCOCCOCCCNC(=O)CN1CCN(CC(=O)O)CCN(CC(=O)O)CCN(CC(=O)O)CC1)C(=O)N[C@H]1CSSC[C@@H](C(=O)N[C@@H](CC(=O)O)C(N)=O)NC(=O)[C@H](Cc2ccccc2)NC(=O)[C@H](CCC(N)=O)NC(=O)[C@H]([C@@H](C)O)NC(=O)[C@@H]2CCCN2C(=O)[C@@H]2CCCN2C1=O [Compound 1008, DOTA-Ttds-Nle-[Cys-Pro-Pro-Thr-Gln-Phe-Cys]-Asp-NH2] ({X4-Suc}-[Nle]CPPTQFCD-NH2; disulfide 2-8)
< 100	< 100	–	–	CCCC[C@H](NC(=O)CN1CCN(CC(=O)O)CCN(CC(=O)O)CCN(CC(=O)O)CC1)C(=O)N[C@H]1CSC2=C(SC[C@@H](C(=O)N[C@@H](CC(=O)O)C(N)=O)NC(=O)[C@H](Cc3ccccc3)CC(=O)[C@H](CCC(N)=O)NC(=O)[C@H]([C@@H](C)O)NC(=O)[C@@H]3CCCN3C(=O)[C@@H]3CCCN3C1=O)C(=O)NC2=O [Compound 2003, DOTA-Nle-[Cys(mli)-Pro-Pro-Thr-Gln-Phe-Cys]-Asp-NH2] ({DOTA}-[Nle]CPPT[X1]CD-NH2; linker 2-7 via Maleimide(3,4-diyl))
< 100	< 100	< 100	< 100	CCCC[C@H](NC(=O)CCC(=O)NCCCOCCOCCOCCCNC(=O)CN1CCN(CC(=O)O)CCN(CC(=O)O)CCN(CC(=O)O)CC1)C(=O)N[C@H]1CSC2=C(SC[C@@H](C(=O)N[C@@H](CC(=O)O)C(N)=O)NC(=O)[C@H](Cc3ccccc3)CC(=O)[C@H](CCC(N)=O)NC(=O)[C@H]([C@@H](C)O)NC(=O)[C@@H]3CCCN3C(=O)[C@@H]3CCCN3C1=O)C(=O)NC2=O [Compound 2005, DOTA-Ttds-Nle-[Cys(mli)-Pro-Pro-Thr-Gln-Phe-Cys]-Asp-NH2]
